Test systems include HCT-15 colon; KM12 colon; MOLT-4 leukemia; OVCAR-5 ovarian; RPMI-8226 leukemia; SNB-75 CNS; UACC-257 melanoma; UO-31 renal; HCT-116 colon.
Common to all, as to assay: NCI-60 cell line screen, 48 h

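Protocol summary: plate cells (96-well), add compound at 5 concentrations, incubate 48 h, interpolate endpoints linearly. At the GI50, growth is halved. TGI denotes the concentration required for complete inhibition of growth.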

For the molecule `C[C@]12C/C(=C/O)C(=O)C(O)=C1CC[C@@H]1C2CC[C@@]2(C)C1CC[C@@H]2O` (stereo partly specified), the TGI with HCT-15 colon was found to be 61.5 µM; in the test with KM12 colon, 76.9 µM; with MOLT-4 leukemia it was 66.5 µM; in the test on OVCAR-5 ovarian it was 46.1 µM; in the test on RPMI-8226 leukemia, 64.8 µM; in the test with SNB-75 CNS, 34.9 µM. Also, the TGI was 62 µM in the test on UACC-257 melanoma and 31.3 µM in the test on UO-31 renal.
As to `N#C/C(=C1\SC(N=Nc2ccc(Cl)cc2)C(=O)N1c1ccccc1)c1nc2ccccc2[nH]1` (stereo unspecified), the TGI is above 100 µM in the test on HCT-116 colon; above 100 µM with HCT-15 colon; above 100 µM in the test with OVCAR-5 ovarian; 65.5 µM in the test on SNB-75 CNS; 92.6 µM in the test on UACC-257 melanoma; 40 µM in the test with UO-31 renal.
Consider `c1ccc(-c2nc(N3CCCNCC3)c3nc(-c4ccccc4)oc3n2)cc1`, for which the GI50 in the test on HCT-116 colon was 1.65 µM; in the test on HCT-15 colon it was 1.47 µM; in the test on KM12 colon, 1.83 µM; in the test with OVCAR-5 ovarian it was 1.7 µM; with UACC-257 melanoma, 1.8 µM; with UO-31 renal, 1.35 µM. The TGI came to 3.35 µM with HCT-116 colon; 2.89 µM with HCT-15 colon; 3.38 µM with KM12 colon; 3.18 µM with OVCAR-5 ovarian; 3.43 µM with UACC-257 melanoma; 2.71 µM in the test with UO-31 renal.
For the molecule `COc1cc(CNc2nc3ccc(C(F)(F)F)cc3nc2-c2ccccc2)cc(OC)c1OC`, the TGI was above 100 µM in the test with HCT-116 colon; above 100 µM with HCT-15 colon; above 100 µM with KM12 colon; 56.8 µM in the test on MOLT-4 leukemia; above 100 µM in the test on OVCAR-5 ovarian; above 100 µM in the test on RPMI-8226 leukemia. Also, the values for the TGI in the test with SNB-75 CNS, in the test on UACC-257 melanoma and with UO-31 renal were 61.7 µM, above 100 µM and 55.6 µM, respectively.
As for `CCOC(=O)N1CCN(CCCCCOc2ccccc2C2CCCCC2)CC1`, the GI50 with HCT-116 colon is 2.16 µM; in the test on HCT-15 colon, 3.09 µM; with KM12 colon, 7.67 µM; in the test with MOLT-4 leukemia, 2.92 µM; with RPMI-8226 leukemia, 1.61 µM; in the test on SNB-75 CNS, 10.7 µM. Besides, the TGI in the test with HCT-116 colon came to 9.65 µM; in the test with HCT-15 colon, 12.9 µM; in the test on KM12 colon, 23.1 µM; in the test with MOLT-4 leukemia it was 13 µM; in the test with RPMI-8226 leukemia it was 4.84 µM; in the test on SNB-75 CNS, 23 µM.
`CC(=O)[CH-]C(=O)c1ccccc1.CC(=O)[CH-]C(=O)c1ccccc1.CC1(C)OCC(C2OC3OC(C)(C)OC3C2[O-])O1.CC[O-].[Ti+4]` (stereo unspecified): the GI50 in the test with HCT-116 colon is 14.9 µM; in the test on HCT-15 colon, 25.9 µM; with KM12 colon, 11.4 µM; in the test with MOLT-4 leukemia, 15.5 µM; in the test with OVCAR-5 ovarian, 14.2 µM; with SNB-75 CNS, 6.6 µM. For the same molecule, the GI50 was 19.4 µM in the test with UACC-257 melanoma and 18.8 µM in the test with UO-31 renal. For the same molecule, the TGI in the test with HCT-116 colon was determined as 28.1 µM; in the test on HCT-15 colon, 68 µM; in the test with KM12 colon, 26.8 µM; with MOLT-4 leukemia, 82.1 µM; in the test on OVCAR-5 ovarian, 31.5 µM; in the test with UACC-257 melanoma, 54.8 µM. Moreover, the TGI in the test with UO-31 renal came to 41.9 µM.
For `Cc1cccc(N(CC(=O)O)S(=O)(=O)c2ccccc2)c1`, the TGI in the test with HCT-15 colon, in the test on KM12 colon, in the test with MOLT-4 leukemia, with OVCAR-5 ovarian, in the test on RPMI-8226 leukemia and in the test with SNB-75 CNS was above 100 µM each time. Further, the TGI in the test on UACC-257 melanoma and with UO-31 renal was above 100 µM throughout.
For the molecule `N#CC(C#N)=c1c2nsnc2c(=C(C#N)C#N)c2nsnc12`, the TGI in the test on HCT-116 colon was determined as 3.71 µM; in the test with KM12 colon, 3.85 µM; in the test on OVCAR-5 ovarian, 3.3 µM; with SNB-75 CNS it was 3.01 µM; with UACC-257 melanoma it was 3.53 µM; in the test with UO-31 renal, 3.87 µM.
`COC(=O)C1C(=O)N(CCc2c[nH]c3ccccc23)C[C@@H]2CCC(=O)C[C@H]12` (stereo partly specified): the TGI in the test with HCT-116 colon, with HCT-15 colon, in the test with KM12 colon, with MOLT-4 leukemia, in the test with RPMI-8226 leukemia and in the test on SNB-75 CNS was above 100 µM throughout. Moreover, the TGI in the test with UACC-257 melanoma and in the test on UO-31 renal was above 100 µM each time.
Take `CC(C)(C)c1ccc(OC2CCO2)cc1` (stereo unspecified): the TGI in the test with HCT-116 colon came out at 41.8 µM; with HCT-15 colon it was 36.9 µM; in the test on KM12 colon, 70.2 µM; with MOLT-4 leukemia, 72.3 µM; in the test on OVCAR-5 ovarian it was 98.7 µM; in the test with RPMI-8226 leukemia, 47 µM. Besides, the figures for the TGI in the test with SNB-75 CNS, in the test with UACC-257 melanoma and in the test on UO-31 renal were above 100 µM, 87.3 µM and above 100 µM, respectively.
For the molecule `Cc1ccc(NC(=O)/C(Cc2nc3ccc([N+](=O)[O-])cc3[nH]c2=O)=N\NC(=O)C[n+]2ccccc2)c(C)c1`, the TGI with HCT-116 colon was above 100 µM; in the test with HCT-15 colon, above 100 µM; with KM12 colon it was above 100 µM; with MOLT-4 leukemia, 88 µM; in the test with OVCAR-5 ovarian, above 100 µM; in the test with SNB-75 CNS, above 100 µM. Further, the values for the TGI in the test with UACC-257 melanoma and with UO-31 renal were above 100 µM and 41.1 µM, respectively.
For `COC(=O)c1ccc2c(c1)C(=O)c1c-2n(CCCN=[N+]=[N-])c(=O)c2cc([N+](=O)[O-])ccc12`, the GI50 was 47.4 µM in the test on HCT-116 colon; above 100 µM in the test on HCT-15 colon; above 100 µM in the test on KM12 colon; 30.2 µM with MOLT-4 leukemia; above 100 µM in the test with OVCAR-5 ovarian; 63.3 µM with RPMI-8226 leukemia. Moreover, the GI50 was 20.5 µM with SNB-75 CNS, above 100 µM with UACC-257 melanoma and above 100 µM in the test with UO-31 renal. Besides, the TGI in the test with HCT-116 colon, in the test with HCT-15 colon, in the test with KM12 colon, in the test on MOLT-4 leukemia, in the test with OVCAR-5 ovarian and in the test with RPMI-8226 leukemia was above 100 µM in each case. Also, the TGI in the test on SNB-75 CNS is 40.8 µM; in the test on UACC-257 melanoma, above 100 µM; in the test on UO-31 renal it was above 100 µM.
In the case of `O=C1c2cccc3cccc(c23)C(=O)N1O`, the TGI with HCT-116 colon, with HCT-15 colon, in the test on KM12 colon, with MOLT-4 leukemia, with OVCAR-5 ovarian and with RPMI-8226 leukemia was above 100 µM each time. The TGI in the test on SNB-75 CNS was 80.2 µM; in the test with UACC-257 melanoma, above 100 µM; in the test on UO-31 renal it was above 100 µM.
Turning to `C=CCNC(=O)N(CCC)CCCC(NC(C)=O)C(=O)NCc1ccccc1` (stereo unspecified), the TGI with HCT-15 colon, in the test with KM12 colon, with MOLT-4 leukemia, with OVCAR-5 ovarian, with RPMI-8226 leukemia and with SNB-75 CNS was above 100 µM each time. Also, the TGI in the test on UACC-257 melanoma and in the test with UO-31 renal was above 100 µM in each case.

The record behind these values is PubChem BioAssay (NCI).
